Data on 15 compounds can be found in patent publication US20230357179A1, “RAF KINASE INHIBITORS AND METHODS OF USE THEREOF” (Deciphera Pharmaceuticals, LLC, priority 2021, published 2023).

Some results are limits rather than exact numbers.

T2 sequence (P04049 307-648 Y340D/Y341D): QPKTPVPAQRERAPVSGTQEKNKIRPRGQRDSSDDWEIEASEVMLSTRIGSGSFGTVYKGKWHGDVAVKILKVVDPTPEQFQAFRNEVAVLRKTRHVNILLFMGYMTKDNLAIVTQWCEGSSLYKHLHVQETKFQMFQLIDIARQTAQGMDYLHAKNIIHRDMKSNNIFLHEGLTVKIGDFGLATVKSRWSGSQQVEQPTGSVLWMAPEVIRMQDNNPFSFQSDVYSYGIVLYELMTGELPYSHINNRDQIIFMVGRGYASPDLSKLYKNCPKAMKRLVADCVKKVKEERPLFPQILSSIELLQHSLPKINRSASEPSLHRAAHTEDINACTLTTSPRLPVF

One assay deals with T1, A-Raf kinase (Homo sapiens, UniProt P10398, Y301D/Y302D).
T1 construct: purchased Sigma
T1 sequence (P10398 with tags, fused parts or gaps Y301D/Y302D): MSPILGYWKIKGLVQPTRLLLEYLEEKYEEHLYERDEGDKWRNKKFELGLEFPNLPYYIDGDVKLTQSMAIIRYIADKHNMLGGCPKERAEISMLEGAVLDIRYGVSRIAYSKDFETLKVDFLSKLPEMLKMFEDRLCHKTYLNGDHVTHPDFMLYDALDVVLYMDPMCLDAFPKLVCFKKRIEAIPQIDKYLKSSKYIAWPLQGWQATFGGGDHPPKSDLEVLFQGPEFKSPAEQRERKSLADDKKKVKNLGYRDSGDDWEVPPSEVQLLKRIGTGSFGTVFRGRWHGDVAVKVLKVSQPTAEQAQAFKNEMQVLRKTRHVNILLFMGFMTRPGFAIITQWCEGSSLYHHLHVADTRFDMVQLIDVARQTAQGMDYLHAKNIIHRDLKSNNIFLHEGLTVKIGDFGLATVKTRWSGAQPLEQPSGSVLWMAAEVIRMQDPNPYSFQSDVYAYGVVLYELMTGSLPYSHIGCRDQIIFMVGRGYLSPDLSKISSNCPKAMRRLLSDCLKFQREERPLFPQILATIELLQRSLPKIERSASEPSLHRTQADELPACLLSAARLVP
Put plainly: Biochemical assay for A-Raf.1 (coupled pyruvate kinase/lactate dehydrogenase). The note with it: read-out: ARAF.1 IC50. The gist of the method: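 A-Raf (5.55 nM) phosphorylating 30.1 nM MEK with 1 mM ATP was monitored by pyruvate kinase/lactate dehydrogenase-coupled NADH oxidation at 340 nm for 6 h at 30° C, in pH 7.5 Tris buffer with 15 mM MgCl2, 1% DMSO. Rates from 4–5 h gave percent inhibition; IC50 by four-parameter fit.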
On to `Cc1ncc(NC(=O)NCCC2(C)CC2)cc1-c1cc(OCCO)nc(-c2ccnc(NC(=O)C3CC3)c2)n1` [Example 133], for which the IC50 was in the range of 500 to 1000 nM.

As to `Cc1cc(F)c(NC(=O)NCCC(C)(C)F)cc1-c1cc(-c2ccnc(NC(=O)C3CC3)c2)cnn1` [Example 139], the IC50 was more than 1000 nM.

For `COC(=O)Nc1cc(-c2cnnc(-c3cc(NC(=O)NCCC(C)(C)OC)c(F)cc3C)c2)ccn1` [Example 140], the IC50 was more than 1000 nM.

As for `COC(=O)Nc1cc(-c2cnnc(-c3cc(NC(=O)NCCC(C)(C)F)c(F)cc3C)c2)ccn1` [Example 141], the IC50 was more than 1000 nM.

For the compound `COC(C)(C)CCNC(=O)Nc1cc(-c2cc(-c3ccnc(NC(=O)C4CC4)c3)cnn2)c(C)cc1F` [Example 142], the IC50 is more than 1000 nM.

In the case of `COC(=O)Nc1cc(-c2nccc(-c3cc(NC(=O)NCCC4(OC)CC4)cnc3C)n2)ccn1` [Example 143], the IC50 was more than 1000 nM.

For `COC(=O)Nc1cc(-c2cc(-c3cc(NC(=O)NCCC4(OC)CC4)c(F)cc3C)ccn2)ccn1` [Example 145], the concentration for half-maximal inhibition (IC50) was more than 1000 nM.

For the compound `COC(=O)Nc1cc(-c2nccc(-c3cc(NC(=O)NCCC4(OC)CC4)c(F)cc3C)n2)ccn1` [Example 146], the IC50 was more than 1000 nM.

Consider `COC(=O)Nc1cc(-c2nccc(-c3cc(NC(=O)NCCC(C)(C)F)c(F)cc3C)n2)ccn1` [Example 147], for which the IC50 is more than 1000 nM.

Turning to `COC[C@H]1CCN(C(=O)Nc2cc(-c3cc(-c4ccnc(NC(=O)OC)c4)cnn3)c(C)cc2F)C1` [Example 148], the IC50 was more than 1000 nM.

In the case of `COC(=O)Nc1cc(-c2cnnc(-c3cc(NC(=O)N4CCC(CC(F)(F)F)C4)c(F)cc3C)c2)ccn1` (stereo not drawn) [Example 150], the IC50 is more than 1000 nM.

`COC(=O)Nc1cc(-c2cc(-c3cc(NC(=O)NC4CC(C)(C)C4)cnc3C)cc(OCCO)n2)ccn1` [Example 156]: the IC50 was more than 1000 nM.

As for `COC(=O)Nc1cc(-c2nc(OCCO)cc(-c3cc(NC(=O)NCCC(C)(C)F)c(F)cc3C)n2)ccn1` [Example 161], the IC50 is more than 1000 nM.

Turning to `COC(=O)Nc1cc(-c2cc(-c3cc(NC(=O)NCCC(C)(C)F)cnc3C)cc(OCCO)n2)ccn1` [Example 165], the IC50 is more than 1000 nM.

With `COC(=O)Nc1cc(-c2cccc(-c3cc(NC(=O)NCCC4(C)CC4)cnc3C)c2)ncn1` [Example 170], the IC50 is more than 1000 nM.

The next assay has as its system Miapaca-2 cells. Put plainly: MiaPaca-2 cell proliferation assay (1), resazurin, 96-well. Conditions: Homo sapiens, MIA PaCa-2, inhibition of cell proliferation. It counts as cell-based. The protocol:
MiaPaca-2 Cell Proliferation Assay (1)
Miapaca-2 cells (catalog #CRL-1420) are obtained from the American Type Culture Collect (ATTC, Manassas, VA). Briefly, cells were grown in DMEM supplemented with 10% characterized fetal bovine serum (Invitrogen, Carlsbad, CA), 2.5% New Zealand sourced horse serum and 1% Penicillin/Streptomycin/L-Glutamine at 37° C., 5% CO2, and 95% humidity. Cells are expanded until reaching 70-95% confluency at which point they are subcultured or harvested for assay use. A serial dilution of test compound is dispensed into a 96-well black clear bottom plate in triplicate. Three thousand cells are added per well in 200 μL complete growth medium in the 96-well plate. Plates are incubated for 67-72 hours at 37° C., 5% CO2, and 95% humidity. At the end of the incubation, 40 μL of a 440 μM solution of resazurin (Sigma, St. Louis, MO) in PBS is added to each well of the plate and plates are incubated for an additional 5-6 hours at 37° C., 5% CO2, and 95% humidity. Plates are read on a Synergy2 or equivalent reader (Biotek, Winooski VT) using an excitation of 540 nm and an emission of 600 nm. Data is analyzed using Prism software (GraphPad, San Diego, CA) to calculate IC50 values.
Consider `Cc1ncc(NC(=O)NCCC2(C)CC2)cc1-c1cc(OCCO)nc(-c2ccnc(NC(=O)C3CC3)c2)n1` [Example 133], for which the IC50 lay in the range of 1000 to 10000 nM.

With `Cc1cc(F)c(NC(=O)NCCC(C)(C)F)cc1-c1cc(-c2ccnc(NC(=O)C3CC3)c2)cnn1` [Example 139], the IC50 is 1000 to 10000 nM.

In the case of `COC(=O)Nc1cc(-c2cnnc(-c3cc(NC(=O)NCCC(C)(C)OC)c(F)cc3C)c2)ccn1` [Example 140], the IC50 lay within 1000 to 10000 nM.

For the compound `COC(=O)Nc1cc(-c2cnnc(-c3cc(NC(=O)NCCC(C)(C)F)c(F)cc3C)c2)ccn1` [Example 141], the IC50 lay in the range of 1000 to 10000 nM.

In the case of `COC(C)(C)CCNC(=O)Nc1cc(-c2cc(-c3ccnc(NC(=O)C4CC4)c3)cnn2)c(C)cc1F` [Example 142], the IC50 lay within 1000 to 10000 nM.

As to `COC(=O)Nc1cc(-c2nccc(-c3cc(NC(=O)NCCC4(OC)CC4)cnc3C)n2)ccn1` [Example 143], the IC50 was in the range of 1000 to 10000 nM.

As to `COC(=O)Nc1cc(-c2cc(-c3cc(NC(=O)NCCC4(OC)CC4)c(F)cc3C)ccn2)ccn1` [Example 145], the IC50 was in the range of 1000 to 10000 nM.

Regarding `COC(=O)Nc1cc(-c2nccc(-c3cc(NC(=O)NCCC4(OC)CC4)c(F)cc3C)n2)ccn1` [Example 146], the IC50 fell in the range of 1000 to 10000 nM.

In the case of `COC(=O)Nc1cc(-c2nccc(-c3cc(NC(=O)NCCC(C)(C)F)c(F)cc3C)n2)ccn1` [Example 147], the IC50 fell in the range of 1000 to 10000 nM.

For the compound `COC[C@H]1CCN(C(=O)Nc2cc(-c3cc(-c4ccnc(NC(=O)OC)c4)cnn3)c(C)cc2F)C1` [Example 148], the IC50 lay within 1000 to 10000 nM.

A further assay addresses T2, C-Raf kinase (Homo sapiens, UniProt P04049, Y340D/Y341D).
T2 construct: Y340D,; GST (N); purchased Sigma
Put plainly: Biochemical assay for C-Raf.1 (coupled pyruvate kinase/lactate dehydrogenase). Conditions: read-out: CRAF.1 IC50. The gist of the method: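 C-Raf (0.43 nM) with MEK 30.1 nM and 1 mM ATP in Tris pH 7.5/MgCl2 buffer, activity coupled via PK/LDH to NADH oxidation (A340), 6 h at 30° C. Rates from 4–5 h window converted to % inhibition versus controls; IC50 by four-parameter fit, 1% DMSO.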
For the compound `Cc1ncc(NC(=O)NCCC2(C)CC2)cc1-c1cc(OCCO)nc(-c2ccnc(NC(=O)C3CC3)c2)n1` [Example 133], the IC50 is not above 100 nM.

Consider `Cc1cc(F)c(NC(=O)NCCC(C)(C)F)cc1-c1cc(-c2ccnc(NC(=O)C3CC3)c2)cnn1` [Example 139], for which the IC50 was not above 100 nM.

`COC(=O)Nc1cc(-c2cnnc(-c3cc(NC(=O)NCCC(C)(C)OC)c(F)cc3C)c2)ccn1` [Example 140]: the IC50 was in the range of 100 to 500 nM.

Regarding `COC(=O)Nc1cc(-c2cnnc(-c3cc(NC(=O)NCCC(C)(C)F)c(F)cc3C)c2)ccn1` [Example 141], the IC50 was not above 100 nM.

As for `COC(C)(C)CCNC(=O)Nc1cc(-c2cc(-c3ccnc(NC(=O)C4CC4)c3)cnn2)c(C)cc1F` [Example 142], the IC50 was not above 100 nM.

Consider `COC(=O)Nc1cc(-c2nccc(-c3cc(NC(=O)NCCC4(OC)CC4)cnc3C)n2)ccn1` [Example 143], for which the IC50 is 100 to 500 nM.

In the case of `COC(=O)Nc1cc(-c2cc(-c3cc(NC(=O)NCCC4(OC)CC4)c(F)cc3C)ccn2)ccn1` [Example 145], the IC50 is not above 100 nM.

In the case of `COC(=O)Nc1cc(-c2nccc(-c3cc(NC(=O)NCCC4(OC)CC4)c(F)cc3C)n2)ccn1` [Example 146], the IC50 was not above 100 nM.

For `COC(=O)Nc1cc(-c2nccc(-c3cc(NC(=O)NCCC(C)(C)F)c(F)cc3C)n2)ccn1` [Example 147], the IC50 was not above 100 nM.

With `COC[C@H]1CCN(C(=O)Nc2cc(-c3cc(-c4ccnc(NC(=O)OC)c4)cnn3)c(C)cc2F)C1` [Example 148], the IC50 lay in the range of 500 to 1000 nM.

Take `COC(=O)Nc1cc(-c2cnnc(-c3cc(NC(=O)N4CCC(CC(F)(F)F)C4)c(F)cc3C)c2)ccn1` (stereo not drawn) [Example 150]: the IC50 was not above 100 nM.

On to `COC(=O)Nc1cc(-c2cc(-c3cc(NC(=O)NC4CC(C)(C)C4)cnc3C)cc(OCCO)n2)ccn1` [Example 156], for which the IC50 was not above 100 nM.

As for `COC(=O)Nc1cc(-c2nc(OCCO)cc(-c3cc(NC(=O)NCCC(C)(C)F)c(F)cc3C)n2)ccn1` [Example 161], the IC50 is not above 100 nM.

As for `COC(=O)Nc1cc(-c2cc(-c3cc(NC(=O)NCCC(C)(C)F)cnc3C)cc(OCCO)n2)ccn1` [Example 165], the IC50 was not above 100 nM.

On to `COC(=O)Nc1cc(-c2cccc(-c3cc(NC(=O)NCCC4(C)CC4)cnc3C)c2)ncn1` [Example 170], for which the IC50 is not above 100 nM.

A further assay has as its system WM3928 cells. Put plainly: WM3928 cell proliferation assay (1), resazurin, 96-well. It counts as cell-based. The note with it: inhibition of cell proliferation. The procedure:
WM3928 Cell Proliferation Assay (1)
WM3928 cells (#WM3928-01-0001) are obtained from Rockland Immunochemicals Inc (Gilbertsville, PA). Briefly, cells were grown in MCDB 153 medium (Sigma, #M7403, St. Louis, MO) supplemented with 20% Leibovitz's L-15 (ThermoFisher #11415-064, Waltham, MA), 2% heat inactivated fetal bovine serum (ThermoFisher, #A3840001, Waltham, MA), 5 μg/mL Insulin (Bovine Pancreas) (Sigma, #I0516, St. Louis, MO), 1.68 mM Calcium Chloride (Sigma, #C-34006, St. Louis, MO) and 1% Penicillin/Streptomycin/L-Glutamine (ThermoFisher #10378016, Waltham, MA) at 37° C., 5% CO2, and 95% humidity. Cells are expanded until reaching 70-95% confluency at which point they are subcultured or harvested for assay use. A serial dilution of test compound is dispensed into a 96-well black clear bottom plate in triplicate. Three thousand cells are added per well in 200 μL complete growth medium in the 96-well plate. Plates are incubated for 67-72 hours at 37° C., 5% CO2, and 95% humidity. At the end of the incubation, 40 μL of a 440 μM solution of resazurin (Sigma, #199303, St. Louis, MO) in PBS is added to each well of the plate and plates are incubated for an additional 6-7 hours at 37° C., 5% CO2, and 95% humidity. Plates are read on a Synergy2 or equivalent reader (Biotek, Winooski VT) using an excitation of 540 nm and an emission of 600 nm. Data is analyzed using Prism software (GraphPad, San Diego, CA) to calculate IC50 values.
Regarding `COC(=O)Nc1cc(-c2cnnc(-c3cc(NC(=O)N4CCC(CC(F)(F)F)C4)c(F)cc3C)c2)ccn1` (stereo not drawn) [Example 150], the IC50 lay in the range of 1000 to 10000 nM.

As to `COC(=O)Nc1cc(-c2cc(-c3cc(NC(=O)NC4CC(C)(C)C4)cnc3C)cc(OCCO)n2)ccn1` [Example 156], the IC50 fell in the range of 100 to 500 nM.

Take `COC(=O)Nc1cc(-c2nc(OCCO)cc(-c3cc(NC(=O)NCCC(C)(C)F)c(F)cc3C)n2)ccn1` [Example 161]: the IC50 is not above 100 nM.

With `COC(=O)Nc1cc(-c2cc(-c3cc(NC(=O)NCCC(C)(C)F)cnc3C)cc(OCCO)n2)ccn1` [Example 165], the IC50 fell in the range of 1000 to 10000 nM.

As to `COC(=O)Nc1cc(-c2cccc(-c3cc(NC(=O)NCCC4(C)CC4)cnc3C)c2)ncn1` [Example 170], the IC50 is 100 to 500 nM.
